Reference: patent US9255106B2, “Substituted [1,2,4]triazolo[4,3-a]pyrazines as PARP-1 inhibitors” (SHANGHAI INSTITUTE OF MATERIA MEDICA, CHINESE ACADEMY OF …, priority 2012, dated 2016)
Marks after values point to notes of the source that are not given here.

Tests used:
V8 cell = experiment: PARP1 inhibitory activity at cellular level (proliferation inhibition model); settings: read-out: PARP1 inhibitory activity at cellular level (%)
[1] = in vivo; cited from earlier work
Capan-1 = experiment: Inhibition of tumor cell proliferation, Capan-1; settings: Homo sapiens
PC-3 = experiment: Inhibition of tumor cell proliferation, PC-3; settings: Homo sapiens
U251 = experiment: Inhibition of tumor cell proliferation, U251; settings: Homo sapiens, U-251
U87-MG = experiment: Inhibition of tumor cell proliferation, U87-MG; settings: Homo sapiens, U-87 MG
[2] = tested on: MDA-MB-436 human breast cancer; experiment: Antitumor activity in vivo, subcutaneously transplanted tumor in MDA-MB-436 human breast cancer nude mice; settings: for TV (mean ± SD) d0: d0 (at grouping); for RTV (mean ± SD) / T/C (%) / TV (mean ± SD) d21 / number of animals in which tumor regressed: d21; for number of animals in which tumor regressed: 6 animals
Description: A tumor tissue in vigorous growing period was cut into about 1.5 mm^3, and inoculated subcutaneously into right armpit of nude mice under a sterile condition. The diameter of subcutaneous transplant tumor in nude mice was measured by vernier caliper. When the tumor grew to 100-200 mm^3, the animals were randomly grouped. […] Solvent control group was administered saline in same volume. During the whole experiment, the tumor diameter was measured twice a week, while the body weight of mice was weighed simultaneously. The formula to calculate tumor volume (TV) was TV=½*a*b^2, wherein a and b respectively referred to length and width. Relative tumor volume (RTV) was calculated according to the measurements, and the formula is RTV=Vt/V0, wherein V0 is the tumor volume measured when the mice were grouped (i.e. d0), and Vt is the tumor volume measured each time.

OVCAR-8 = experiment: Inhibition of tumor cell proliferation, OVCAR-8; settings: Homo sapiens

| Structure (SMILES) | inhibition at 0.0016 µM (V8 cell) [%] | inhibition at 0.008 µM (V8 cell) [%] | inhibition at 0.04 µM (V8 cell) [%] | inhibition at 0.2 µM (V8 cell) [%] | inhibition at 1 µM (V8 cell) [%] | also measured |
| --- | --- | --- | --- | --- | --- | --- |
| CC1CN(C(=O)c2cc(Cc3n[nH]c(=O)c4ccccc34)ccc2F)Cc2nnc(CF)n21 (centres unmarked) [Compound S18] | 7.63 | 54.1 | 77 | 77 | 78.4 |  |
| O=C(c1cc(Cc2n[nH]c(=O)c3ccccc23)ccc1F)N1CCN(C(=O)C2CC2)CC1 [AZD2281, olaparib, reference compound] |  |  |  |  |  | bioavailability [1]: < 15%; half-life time [1]: < 1 h; IC50 (Capan-1): 0.729 µM; IC50 (PC-3): 3.92 µM; IC50 (U251): 1.19 µM; IC50 (U87-MG): 2.92 µM; TV (mean ± SD) d0 ([2]; 100 mg/kg, po, qd × 21): 127 ± 37 mm^3; RTV (mean ± SD) ([2]; 100 mg/kg, po, qd × 21): 0.95 ± 0.78**; T/C (%) ([2]; 100 mg/kg, po, qd × 21): 6.65%; TV (mean ± SD) d21 ([2]; 100 mg/kg, po, qd × 21): 120 ± 118 mm^3; IC50 (OVCAR-8): 12.4 µM |
| CC1CN(C(=O)c2cc(Cc3n[nH]c(=O)c4ccccc34)ccc2F)Cc2nnc(C(F)F)n21 (centres unmarked) [Compound S17] | 4.61 | 12.1 | 65.6 | 76.5 | 79.7 |  |
| CC1c2nnc(C(F)(F)F)n2C(C)CN1C(=O)c1cc(Cc2n[nH]c(=O)c3ccccc23)ccc1F (centres unmarked) [Compound S5] | -5.06 | -3.01 | 23.5 | 63.8 | 73.5 |  |
| CC1c2nnc(CF)n2C(C)CN1C(=O)c1cc(Cc2n[nH]c(=O)c3ccccc23)ccc1F (centres unmarked) [Compound S19] | 2.09 | -2.17 | 3.32 | 0.4 | 0.69 |  |
| CC1CN(C(=O)c2cc(Cc3n[nH]c(=O)c4ccccc34)ccc2F)Cc2nnc(C(F)(F)F)n21 (racemic) [Compound S3] | -3.11 | 33.1 | 61.2 | 70.1 | 74.4 | IC50 (Capan-1): 0.0076 µM; IC50 (PC-3): 0.995 µM; IC50 (U87-MG): 0.228 µM; TV (mean ± SD) d0 ([2]; 25 mg/kg, po, qd × 21): 127 ± 30 mm^3; RTV (mean ± SD) ([2]; 25 mg/kg, po, qd × 21): 1.40 ± 0.71**; T/C (%) ([2]; 25 mg/kg, po, qd × 21): 9.80%; TV (mean ± SD) d21 ([2]; 25 mg/kg, po, qd × 21): 165 ± 57 mm^3; number of animals in which tumor regressed ([2]; 25 mg/kg, po, qd × 21): 3; tumor outcome ([2]; 100 mg/kg): the tumor completely disappeared; side effects ([2]; 100 mg/kg and 25 mg/kg, po, qd × 21): no significant side effects; TV (mean ± SD) d0 ([2]; 100 mg/kg, po, qd × 21): 128 ± 36 mm^3; RTV (mean ± SD) ([2]; 100 mg/kg, po, qd × 21): 0.08 ± 0.04**; T/C (%) ([2]; 100 mg/kg, po, qd × 21): 0.59%; TV (mean ± SD) d21 ([2]; 100 mg/kg, po, qd × 21): 11 ± 7 mm^3; number of animals in which tumor regressed ([2]; 100 mg/kg, po, qd × 21): 1; IC50 (OVCAR-8): 10.5 µM |
| COC1CN(C(=O)c2cc(Cc3n[nH]c(=O)c4ccccc34)ccc2F)Cc2nnc(C(F)(F)F)n21 (centres unmarked) [Compound S10] | 11.6 | 10.5 | 31.8 | 67.5 | 78.6 |  |
| CC1c2nnc(C(F)(F)F)n2CCN1C(=O)c1cc(Cc2n[nH]c(=O)c3ccccc23)ccc1F (centres unmarked) [Compound S4] | -1.36 | 8.66 | 53.1 | 75.5 | 75.7 |  |
